Data as given in PubChem BioAssay AID1918931 (Molecular Pharmacology Branch, DTP, NCI, 2023).

System: 138582-337-R-J1-PDC complex spheroid viability
Test: Anticancer human tumor 138582-337-R-J1-PDC patient-derived Merkel cell tumor cell line growth inhibition
Conditions: for IC50: curve of first compound; for viability, T/C: stronger effect = lower value
Description: Multicellular complex tumor spheroid response to LSD1 Inhibitor Iadademstat in combination with a variety of drugs and investigational agents in selected tumor cell lines
The current study was undertaken to assess response to LSD1 inhibitors in combination with standard-of-care drugs and investigational agents in solid tumor complex spheroid models as well as in the K-562 leukemia. Complex spheroids include a stromal component modeled by human endothelial cells (HUVEC) and fibroblasts modeled by human mesenchymal stem cells (MSCs). The concentration ranges selected for each drug and investigational agent were based upon clinically achievable concentrations if the clinical Cmax of the agent was known.
Compounds. The drugs and investigational agents used in this study are listed on Table 1. All of the agents used, including staurosporine (NSC755774) and gemcitabine (NSC613327), were obtained from the Developmental Therapeutics Program, NCI. FDA-approved anticancer drugs are available from the NCI at http://dtp.nci.nih.gov/branches/dscb/oncology_drugset_explanation.html. Drugs and investigational agents were >95% pure by proton nuclear magnetic resonance (NMR) and liquid chromatography/mass spectrometry (LC/MS). Stock solutions were prepared at 400x in DMSO, stored at -70 degrees C, and diluted in fresh medium prior to their use. The final concentration of DMSO in cell culture wells never exceeded 0.25% (v/v). The FDA-approved anticancer drug set is available from the Developmental Therapeutics Program at https://dtp.cancer.gov/organization/dscb/obtaining/available_plates.htm. All drugs and investigational agents were tested over a range starting from a high concentration at or near the clinical Cmax and decreasing in half-log increments. If the clinical Cmax for an agent had not been determined, the highest concentration tested was 10 microM.
Cell Lines. The patient-derived cancer cell (PDC) lines: 292921-168-R-J2-PDC, K24384-001-R-PDC, and 521955-158-R2-J5-PDC pancreatic carcinomas, 556581-035-R-J1 ovarian carcinoma, 324938-238-R-J1-PDC, 855422-203-R-J1-PDC and 883617-216-R-J1-PDC urothelial bladder carcinomas, 743489-274-T-PDC renal cell carcinoma, 138582-R-J1 Merkel cell tumor, K60290-347-R-J1 and K57222-313-R-J1-PDC glioblastomas, 653999-131-R-J2-PDC, LG0703-F948-PDC, and 349418-098-R-PDC non-small cell lung carcinomas, 885512-296-R-J2-PDC, 171881-019-R-J1-PDC breast carcinomas and 186277-243-T-J2-PDC and 233499-124-R-J2-PDC colon carcinomas were obtained from the NCI Patient-Derived Models Repository (PDMR, https://pdmr.cancer.gov). The established cell lines NCI/ADR-RES (RRID:CVCL_14520 and OVCAR-5 (RRID:CVCL_1628) ovarian carcinomas, 786-O (RRID:CVCL_1051) and A498 (RRID:CVCL_A498) renal cell carcinoma, NCI-H211 (ATCC, cat. CRL-5824; RRID:CVCL_1529), NCI-H196 (ATCC, cat. CRL-5823, RRID:CVCL_1509), SW 1271 (ATCC, cat. CRL-2177, RRID:CVCL_1716) and NCI-H1876 (ATCC, cat. CRL-5902, RRID:CVCL_1503) small cell lung carcinomas, MDA-MB-231 (RRID:CVCL_0062) and MDA-MB-468 (RRID:CVCL_0419)breast carcinomas (10-12). Pooled donor human umbilical vein endothelial cells (HUVEC, Lonza, cat. CC-2519) and human mesenchymal stem cells (hMSC, Lonza, cat. PT-2501) were purchased from Lonza (Walkersville, MD).
Cell Culture. All cells were maintained in an incubator at 37 degrees C and 5% CO2 with 95% humidity. The PDC lines were cultured according to standard operating procedures established by the NCI PDMR (https://pdmr.cancer.gov). Briefly all PDCs were thawed and cultured in Matrigel-coated flasks prepared with a working solution of 1X Ham's F-12 nutrient mix, without supplementation (Invitrogen, Waltham, MA, cat. 11765054), 100 U/mL penicillin-streptomycin (Invitrogen, cat. 15140122), and 2.5% Matrigel (Corning Inc., Corning, NY, cat. 354248) for the first three passages. […]

[1] = second compound 0.1 µM, first compound 0.00949 µM
[2] = second compound 0.1 µM, first compound 0.03 µM
[3] = second compound 0.1 µM, first compound 0.0949 µM
[4] = second compound 0.1 µM, first compound 0.3 µM
[5] = second compound 0.1 µM, first compound 0.949 µM
[6] = second compound 0.1 µM, first compound 3 µM
[7] = second compound 0.316 µM, first compound 0.00949 µM
[8] = second compound 0.316 µM, first compound 0.03 µM
[9] = second compound 0.316 µM, first compound 0.0949 µM
[10] = second compound 0.316 µM, first compound 0.3 µM
[11] = second compound 0.316 µM, first compound 0.949 µM
[12] = second compound 0.316 µM, first compound 3 µM
[13] = second compound 1 µM, first compound 0.00949 µM
[14] = second compound 1 µM, first compound 0.03 µM
[15] = second compound 1 µM, first compound 0.0949 µM
[16] = second compound 1 µM, first compound 0.3 µM
[17] = second compound 1 µM, first compound 0.949 µM
[18] = second compound 1 µM, first compound 3 µM
[19] = second compound 3.16 µM, first compound 0.00949 µM
[20] = second compound 3.16 µM, first compound 0.03 µM
[21] = second compound 3.16 µM, first compound 0.0949 µM
[22] = second compound 3.16 µM, first compound 0.3 µM
[23] = second compound 3.16 µM, first compound 0.949 µM
[24] = second compound 3.16 µM, first compound 3 µM
[25] = second compound 10 µM, first compound 0.00949 µM
[26] = second compound 10 µM, first compound 0.03 µM
[27] = second compound 10 µM, first compound 0.0949 µM
[28] = second compound 10 µM, first compound 0.3 µM
[29] = second compound 10 µM, first compound 0.949 µM
[30] = second compound 10 µM, first compound 3 µM
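Also: spheroids exposed to agents for 7 days.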
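For viability, T/C in this document: 100% = DMSO vehicle control viability.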

| SMILES | IC50 (second compound 0.1 µM) [nM] | IC50 (second compound 0.316 µM) [nM] | IC50 (second compound 1 µM) [nM] | IC50 (second compound 3.16 µM) [nM] | IC50 (second compound 10 µM) [nM] | viability, T/C [1] [%] | viability, T/C [2] [%] | viability, T/C [3] [%] | viability, T/C [4] [%] | viability, T/C [5] [%] | viability, T/C [6] [%] | viability, T/C [7] [%] | viability, T/C [8] [%] | viability, T/C [9] [%] | viability, T/C [10] [%] | viability, T/C [11] [%] | viability, T/C [12] [%] | viability, T/C [13] [%] | viability, T/C [14] [%] | viability, T/C [15] [%] | further results |
| --- | --- | --- | --- | --- | --- | --- | --- | --- | --- | --- | --- | --- | --- | --- | --- | --- | --- | --- | --- | --- | --- |
| O=C(C=Cc1cccc(S(=O)(=O)Nc2ccccc2)c1)NO + NC1CCC(NC2CC2c2ccccc2)CC1 | 580 | 678 | 562 | 483 | 408 | 82.7 | 90.2 | 96 | 75.3 | 30.4 | 2.19 | 69.6 | 89.3 | 95.8 | 93.6 | 34.7 | 2.29 | 85.3 | 92.6 | 97.8 | viability, T/C [16]: 66.5%; viability, T/C [17]: 34.1%; viability, T/C [18]: 1.94%; viability, T/C [19]: 76.5%; viability, T/C [20]: 92.3%; viability, T/C [21]: 79.5%; viability, T/C [22]: 64.7%; viability, T/C [23]: 28.7%; viability, T/C [24]: 0.44%; viability, T/C [25]: 73.9%; viability, T/C [26]: 77.6%; viability, T/C [27]: 82.2%; viability, T/C [28]: 52.3%; viability, T/C [29]: 29.9%; viability, T/C [30]: 0.47% |
| NS(=O)(=O)OCC1CC(n2ccc3c(NC4CCc5ccccc54)ncnc32)CC1O (stereo not given) + NC1CCC(NC2CC2c2ccccc2)CC1 | 621 | 658 | 629 | 471 | 819 | 98.5 | 114 | 92.1 | 67.2 | 40.5 | 33.1 | 112 | 96.2 | 84.2 | 67.3 | 37.4 | 37 | 106 | 107 | 85.5 | viability, T/C [16]: 72.4%; viability, T/C [17]: 35.3%; viability, T/C [18]: 32.2%; viability, T/C [19]: 101%; viability, T/C [20]: 119%; viability, T/C [21]: 90.1%; viability, T/C [22]: 64.3%; viability, T/C [23]: 29.8%; viability, T/C [24]: 22.2%; viability, T/C [25]: 107%; viability, T/C [26]: 107%; viability, T/C [27]: 92.8%; viability, T/C [28]: 79.5%; viability, T/C [29]: 44.4%; viability, T/C [30]: 26% |
